Patent publication US8703785B2, “2-aminopyrimidin-4-one and 2-aminopyridine derivatives both having BACE1-inhibiting activity” (Shionogi & Co., Ltd., priority 2008, dated 2014)

What was measured:
hERG (IKr) = hERG (IKr) (Homo sapiens (Human), UniProt Q12809); assay: hERG test; assay type: cell-based; conditions: HEK293 cells expressing hERG channel, pH 7.4, HEK293 cell expressing hERG, compound concentration 5 μM, read-out: inhibitory percentage (IKr maximum tail current)
Text: For the purpose of risk assessment for QT prolongation on an electrocardiogram, the action on delayed rectifier K+ current (IKr) which plays an important role on a process of ventricular repolarization was studied using a HEK293 cell with a human ether-a-go-go related gene (hERG) channel expressed therein. A cell was maintained at a membrane potential of −80 mV, and then +40 mV of a depolarizing stimulus was applied to the cell for 2 seconds and further −50 mV of a repolarizing stimulus was applied thereto for 2 seconds by a whole-cell patch clamp technique with a fully-automatic patch clamp system (PatchXpress 7000A, Axon Instruments Inc.), and the induced IKr was recorded. […] The absolute value of the maximum tail current was determined from the obtained IKr with an analysis software (DataXpress ver. 1, Molecular Devices Corporation) based on a current value at a maintained membrane potential. Further, an inhibitory percentage relative to the maximum tail current before application of the test compound was calculated, and influence of the test compound on IKr was evaluated in comparison with the medium application group (0.1% dimethyl sulfoxide solution). […]

[1] = test system: Neuroblastoma SH-SY5Y cells (SH/APPwt) with human wild-type β-APP excessively expressed; assay: Measurement of β-amyloid (Aβ) production inhibitory effect in cell; assay type: cell-based; conditions: 24 hours incubation, Amyloid-β 1-40 HTRF
Protocol: Neuroblastoma SH-SY5Y cells (SH/APPwt) with human wild-type β-APP excessively expressed therein were prepared at 8×10^5 cells/mL, and 150 μl portions thereof were inoculated into respective wells of a 96-well culture plate (Falcon). The cells were cultured for 2 hours at 37° C. in a 5% gaseous carbon dioxide incubator. […] Namely, the final DMSO concentration was 1%, and the amount of the cell culture was 200 μl. After the incubation was performed for 24 hours from the addition of the test compound, 100 μl of the culture supernatant was collected from each fraction. The amount of the Aβ in each fraction was measured. The Aβ amount was measured as follows. 10 μl of a homogeneous time resolved fluorescence (HTRF) measurement reagent (Amyloid-β 1-40 peptide; IBA Molecular Holding, S.A.) and 10 μl of the culture supernatant were put into a 384-well half area microplate (black microplate, Costar) and mixed with each other, and then left standing overnight at 4° C. while the light was shielded. Then, the fluorescence intensity (excitation wavelength: 337 nm, measurement wavelength: 620 nm and 665 nm) was measured with a Wallac 1420 multilabel counter (Perkin Elmer life sciences).

CYP3A4 = CYP3A4 (Homo sapiens (Human), UniProt P08684); assay: CYP3A4 fluorescent MBI test; assay type: in vitro ADME; conditions: E. coli-expressing CYP3A4, 7-BFC substrate, pre-reaction 0 or 30 minutes
Protocol: The CYP3A4 fluorescent MBI test is a test to examine enhancement of CYP3A4 inhibition by metabolic reaction of the compound. Here, E. coli-expressing CYP3A4 was used as an enzyme, and a reaction wherein 7-benzyloxy trifluoromethylcumarin (7-BFC) was debenzylated by the CYP3A4 enzyme into a fluorescent metabolite 7-hydroxytrifluoromethylcumarin (HFC) was employed as an indicator reaction. The reaction conditions were as follows.
Substrate: 5.6 μmol/L 7-BFC
Pre-reaction time: 0 or 30 minutes
Reaction time: 15 minutes
Reaction temperature: 25° C. (room temperature)
CYP3A4 content (E. coli-expressing enzyme): 62.5 pmol/mL at pre-reaction, […] at reaction (10-fold diluted) […]
The enzyme and a test compound solution were added to a K-Pi buffer (pH 7.4) in the aforementioned amounts for the pre-reaction so that a pre-reaction solution was prepared, and this solution was put into a 96-well microplate. […] With respect to each of the microplates on which the indicator reaction was performed, the fluorescence value of the metabolite 7-HFC was measured with a fluorescence plate reader (Ex=420 nm, Em=535 nm). […] The remaining activity (%) at each concentration after adding the test compound solution was calculated, and the IC50 value was calculated from the concentration and inhibition percentage by inverse estimation with the logistic model. […]

Recombinant human BACE-1 = Recombinant human BACE-1 (Homo sapiens (Human), UniProt P56817); assay: Measurement of BACE1 inhibitory activity; assay type: biochemical; conditions: Recombinant human BACE-1 7.4 nM, substrate peptide 18 nM, pH 5.0, 3 hours at 30° C.; read-out: IC50 (BACE1 enzyme activity)
Protocol: First, 48.5 μl portions of a solution of substrate peptide (Biotin-XSEVNLDAEFRHDSGC-Eu: X=ε-amino-n-capronic acid, Eu=Europium cryptate) were put into respective wells of a 96-well half area microplate (black microplate, Costar). Then, 0.5 μl of a test compound (DMSO (dimethyl sulfoxide) solution) and 1 μl of Recombinant human BACE-1 (R&D systems) were added to each of the wells, and they were reacted for 3 hours at 30° C. […] The final concentration of the substrate peptide was set to 18 nM, and the final concentration of Recombinant human BACE-1 was set to 7.4 nM. The reaction buffer used was a sodium acetate buffer (50 mM sodium acetate, pH 5.0, 0.008% Triton X-100). After the reaction finished, 50 μl portions of a 8.0 μg/ml solution of Streptavidin-XL665 (CIS bio international) in a phosphate buffer (150 mM K2HPO4—KH2PO4, pH 7.0, 0.008% Triton X-100, 0.8 M KF) were added to the respective wells, and the plate was left standing for 1 hour at 30° C. Thereafter, the fluorescence intensity (excitation wavelength: 320 nm, measurement wavelength: 620 nm and 665 nm) was measured with a Wallac 1420 multilabel counter (Perkin Elmer life sciences). The enzyme activity was determined from the count rate at each measurement wavelength (10000× Count 665/Count 620), and the amount needed to inhibit the enzyme activity by 50% (IC50) was calculated.

Recombinant human BACE-1, sequence (P56817 46-501): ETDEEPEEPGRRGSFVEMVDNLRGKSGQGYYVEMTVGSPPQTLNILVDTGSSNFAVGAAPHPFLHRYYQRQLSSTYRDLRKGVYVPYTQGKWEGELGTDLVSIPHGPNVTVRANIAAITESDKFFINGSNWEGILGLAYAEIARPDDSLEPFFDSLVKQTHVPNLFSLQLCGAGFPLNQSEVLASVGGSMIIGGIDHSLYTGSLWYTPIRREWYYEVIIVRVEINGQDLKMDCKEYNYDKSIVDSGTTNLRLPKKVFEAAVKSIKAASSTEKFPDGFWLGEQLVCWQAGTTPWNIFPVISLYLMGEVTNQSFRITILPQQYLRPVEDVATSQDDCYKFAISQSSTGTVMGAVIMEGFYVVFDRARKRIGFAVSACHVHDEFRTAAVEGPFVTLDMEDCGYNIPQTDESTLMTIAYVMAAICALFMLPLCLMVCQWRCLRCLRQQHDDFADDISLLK
hERG (IKr), sequence (Q12809 whole entry): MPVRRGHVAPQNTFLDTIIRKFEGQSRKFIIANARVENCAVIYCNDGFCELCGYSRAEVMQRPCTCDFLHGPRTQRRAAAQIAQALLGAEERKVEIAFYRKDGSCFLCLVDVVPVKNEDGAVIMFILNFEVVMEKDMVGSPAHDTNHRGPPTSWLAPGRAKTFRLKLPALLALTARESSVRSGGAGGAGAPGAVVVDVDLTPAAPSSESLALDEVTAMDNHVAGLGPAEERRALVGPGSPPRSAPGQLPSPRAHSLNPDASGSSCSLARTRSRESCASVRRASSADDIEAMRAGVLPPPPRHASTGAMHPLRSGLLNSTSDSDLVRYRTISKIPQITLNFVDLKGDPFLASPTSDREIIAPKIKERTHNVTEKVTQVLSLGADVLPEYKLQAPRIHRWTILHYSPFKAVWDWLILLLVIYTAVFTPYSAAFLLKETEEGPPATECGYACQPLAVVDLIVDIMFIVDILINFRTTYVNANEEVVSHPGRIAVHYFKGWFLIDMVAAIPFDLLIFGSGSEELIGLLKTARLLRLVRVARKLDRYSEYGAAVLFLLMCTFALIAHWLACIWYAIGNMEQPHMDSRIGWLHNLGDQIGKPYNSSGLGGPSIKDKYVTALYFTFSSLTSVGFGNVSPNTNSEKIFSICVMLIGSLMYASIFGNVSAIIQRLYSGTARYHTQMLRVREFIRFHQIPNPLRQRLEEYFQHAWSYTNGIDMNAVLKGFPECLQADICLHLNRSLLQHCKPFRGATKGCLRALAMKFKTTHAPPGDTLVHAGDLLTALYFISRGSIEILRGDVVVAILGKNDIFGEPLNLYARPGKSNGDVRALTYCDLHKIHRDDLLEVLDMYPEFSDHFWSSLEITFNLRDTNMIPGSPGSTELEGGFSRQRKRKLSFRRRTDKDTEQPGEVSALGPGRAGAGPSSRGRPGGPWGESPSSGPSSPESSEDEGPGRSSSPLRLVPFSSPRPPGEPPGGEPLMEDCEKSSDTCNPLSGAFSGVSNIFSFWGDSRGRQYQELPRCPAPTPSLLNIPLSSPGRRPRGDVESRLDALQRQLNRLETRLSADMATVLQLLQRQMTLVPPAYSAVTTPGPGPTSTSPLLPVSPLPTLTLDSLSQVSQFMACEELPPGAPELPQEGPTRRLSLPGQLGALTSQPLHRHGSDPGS
CYP3A4, sequence (P08684 whole entry): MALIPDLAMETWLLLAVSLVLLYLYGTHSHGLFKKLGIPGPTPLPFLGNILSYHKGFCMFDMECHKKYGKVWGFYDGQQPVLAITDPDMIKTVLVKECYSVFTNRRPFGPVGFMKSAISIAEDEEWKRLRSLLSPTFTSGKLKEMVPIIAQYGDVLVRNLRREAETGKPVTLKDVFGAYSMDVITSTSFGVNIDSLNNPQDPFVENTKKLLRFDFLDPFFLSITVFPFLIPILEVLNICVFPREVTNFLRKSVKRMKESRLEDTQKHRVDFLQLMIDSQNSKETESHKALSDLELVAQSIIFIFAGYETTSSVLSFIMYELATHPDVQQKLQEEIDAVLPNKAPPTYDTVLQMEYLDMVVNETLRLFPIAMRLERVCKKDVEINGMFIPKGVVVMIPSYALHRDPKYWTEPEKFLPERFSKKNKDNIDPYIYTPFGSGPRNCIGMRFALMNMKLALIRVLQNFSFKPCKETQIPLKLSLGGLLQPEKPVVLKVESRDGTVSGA

Structure (SMILES): COCCOc1cnc(C(=O)Nc2cccc(C3(C)CC(=O)N(C)C(N)=N3)c2)cn1 (stereo not shown) [Compound 40]
- inhibition at 10 min, 5 µM (hERG (IKr)): 4.1%
- IC50 [1]: 0.0009 µM
- IC50 difference without vs with pre-reaction (CYP3A4): ≤ 3 µM
- IC50 (Recombinant human BACE-1): 0.014 µM
